Holding throughout (assay): Large panel kinase profiling
Common to all, as to format: biochemical
Holding throughout (settings): 1 μM test article, 1 mM ATP

One experiment has as its target AAK1 (Homo sapiens, UniProt Q2M2I8). Put shortly:
(§1)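 Continuous-read kinase assay: chelation-sensor peptide, 1 mM ATP, compound at 1 μM. Plates kept at 30° C.; fluorescence sampled at 1-min intervals (360/485 nm).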

A further experiment addresses AKT3 (Homo sapiens, UniProt Q9Y243). The procedure, abridged: as §1
The next experiment concerns the target T1, CAMK2G (Homo sapiens, UniProt Q13555).
T1 construct: AssayQuant Technologies, Inc. (ran the panel)
Put shortly: as §1

In another experiment the target is T2, CAMKK1 (Homo sapiens, UniProt Q8N5S9).
T2 construct: AssayQuant Technologies, Inc. (ran the panel)
Put shortly:
as §1

The target in another experiment is T3, LATS2 (Homo sapiens, UniProt Q9NRM7).
T3 sequence (Q9NRM7 1-1088): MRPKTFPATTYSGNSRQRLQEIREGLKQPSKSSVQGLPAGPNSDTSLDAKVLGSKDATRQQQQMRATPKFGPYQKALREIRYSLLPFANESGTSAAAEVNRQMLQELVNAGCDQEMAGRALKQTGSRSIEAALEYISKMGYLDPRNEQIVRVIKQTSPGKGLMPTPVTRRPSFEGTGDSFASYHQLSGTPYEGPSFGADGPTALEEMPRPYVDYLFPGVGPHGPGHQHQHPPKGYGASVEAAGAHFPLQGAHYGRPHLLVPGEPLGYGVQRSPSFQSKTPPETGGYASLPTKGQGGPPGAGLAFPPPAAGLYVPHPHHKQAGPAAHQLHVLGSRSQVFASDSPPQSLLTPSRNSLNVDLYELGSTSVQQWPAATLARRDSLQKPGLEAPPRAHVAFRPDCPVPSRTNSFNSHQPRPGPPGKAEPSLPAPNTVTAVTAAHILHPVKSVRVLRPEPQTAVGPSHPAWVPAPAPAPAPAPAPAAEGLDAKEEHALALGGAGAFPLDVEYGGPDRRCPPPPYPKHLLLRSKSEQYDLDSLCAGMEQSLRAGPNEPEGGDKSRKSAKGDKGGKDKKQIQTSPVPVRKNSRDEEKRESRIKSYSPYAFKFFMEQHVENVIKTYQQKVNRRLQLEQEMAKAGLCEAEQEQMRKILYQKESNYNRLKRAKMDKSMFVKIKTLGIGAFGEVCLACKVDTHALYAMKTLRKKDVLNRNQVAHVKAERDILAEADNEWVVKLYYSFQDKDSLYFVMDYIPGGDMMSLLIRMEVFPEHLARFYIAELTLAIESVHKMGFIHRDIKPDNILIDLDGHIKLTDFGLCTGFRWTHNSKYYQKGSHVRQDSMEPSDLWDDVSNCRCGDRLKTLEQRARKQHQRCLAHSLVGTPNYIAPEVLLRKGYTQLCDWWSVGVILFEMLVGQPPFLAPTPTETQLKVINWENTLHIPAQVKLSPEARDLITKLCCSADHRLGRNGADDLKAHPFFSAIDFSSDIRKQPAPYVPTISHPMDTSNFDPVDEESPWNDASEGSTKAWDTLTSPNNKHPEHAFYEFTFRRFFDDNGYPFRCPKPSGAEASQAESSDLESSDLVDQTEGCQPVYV
The procedure, abridged:
as §1

For a further experiment, the target named is T4, MAP3K13 (Homo sapiens, UniProt O43283).
T4 sequence (O43283 1-966): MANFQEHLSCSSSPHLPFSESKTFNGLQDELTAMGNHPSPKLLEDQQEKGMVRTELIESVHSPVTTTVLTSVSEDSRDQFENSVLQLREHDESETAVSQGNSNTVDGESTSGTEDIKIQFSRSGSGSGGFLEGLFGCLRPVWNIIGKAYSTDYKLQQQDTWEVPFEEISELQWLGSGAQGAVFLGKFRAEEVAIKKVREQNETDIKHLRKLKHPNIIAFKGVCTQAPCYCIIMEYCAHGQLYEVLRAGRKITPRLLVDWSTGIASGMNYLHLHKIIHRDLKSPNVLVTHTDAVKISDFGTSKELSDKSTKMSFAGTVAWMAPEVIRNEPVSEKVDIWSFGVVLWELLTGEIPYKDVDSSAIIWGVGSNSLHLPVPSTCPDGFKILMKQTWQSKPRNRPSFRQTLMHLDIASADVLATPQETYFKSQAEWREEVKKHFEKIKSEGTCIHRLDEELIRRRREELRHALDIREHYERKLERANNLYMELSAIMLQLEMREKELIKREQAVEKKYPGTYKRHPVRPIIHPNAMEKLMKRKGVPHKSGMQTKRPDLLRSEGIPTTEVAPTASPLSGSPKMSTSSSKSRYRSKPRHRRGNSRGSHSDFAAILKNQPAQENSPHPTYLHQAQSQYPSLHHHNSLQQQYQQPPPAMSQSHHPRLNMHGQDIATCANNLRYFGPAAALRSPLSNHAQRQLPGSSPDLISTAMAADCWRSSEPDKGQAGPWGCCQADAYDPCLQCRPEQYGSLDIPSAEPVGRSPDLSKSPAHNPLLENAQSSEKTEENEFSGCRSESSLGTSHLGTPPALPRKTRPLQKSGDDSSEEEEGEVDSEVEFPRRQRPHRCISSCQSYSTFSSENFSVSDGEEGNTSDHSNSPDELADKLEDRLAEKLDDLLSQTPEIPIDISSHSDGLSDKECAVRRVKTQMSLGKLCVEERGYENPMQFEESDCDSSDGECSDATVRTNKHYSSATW
Put shortly: as §1

The target of another experiment is T5, MAP3K8 (Homo sapiens, UniProt P41279).
T5 construct: AssayQuant Technologies, Inc. (service provider)
The procedure, abridged:
as §1

For another experiment, the target named is T6, MAP4K1/HPK1 (Homo sapiens, UniProt Q92918).
T6 construct: AssayQuant Technologies, Inc. (service provider)
The procedure, abridged: as §1

Molecules are shown by their SMILES.

T6 sequence (Q92918 whole entry): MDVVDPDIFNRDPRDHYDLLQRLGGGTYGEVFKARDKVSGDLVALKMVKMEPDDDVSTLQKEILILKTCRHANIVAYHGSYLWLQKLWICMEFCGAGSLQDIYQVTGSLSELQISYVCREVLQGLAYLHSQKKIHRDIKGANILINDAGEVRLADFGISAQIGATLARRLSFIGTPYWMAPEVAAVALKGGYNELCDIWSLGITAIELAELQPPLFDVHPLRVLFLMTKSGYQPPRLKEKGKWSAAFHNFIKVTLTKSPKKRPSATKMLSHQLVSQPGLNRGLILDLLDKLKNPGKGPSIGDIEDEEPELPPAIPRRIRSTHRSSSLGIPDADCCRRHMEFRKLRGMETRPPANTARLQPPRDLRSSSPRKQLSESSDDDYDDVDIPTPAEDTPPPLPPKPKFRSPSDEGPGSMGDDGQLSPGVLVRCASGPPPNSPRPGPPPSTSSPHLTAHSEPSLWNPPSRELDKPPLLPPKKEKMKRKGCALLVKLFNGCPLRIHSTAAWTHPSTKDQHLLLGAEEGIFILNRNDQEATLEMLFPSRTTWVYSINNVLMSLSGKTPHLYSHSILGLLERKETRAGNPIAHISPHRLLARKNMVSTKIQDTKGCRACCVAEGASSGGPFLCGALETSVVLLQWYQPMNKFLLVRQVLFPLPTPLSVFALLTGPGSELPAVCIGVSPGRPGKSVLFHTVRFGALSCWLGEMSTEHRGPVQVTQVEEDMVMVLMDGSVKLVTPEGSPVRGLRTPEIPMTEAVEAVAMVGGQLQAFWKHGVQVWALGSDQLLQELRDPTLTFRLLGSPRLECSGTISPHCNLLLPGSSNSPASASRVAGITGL
T1 sequence (Q13555 whole entry, species assumed): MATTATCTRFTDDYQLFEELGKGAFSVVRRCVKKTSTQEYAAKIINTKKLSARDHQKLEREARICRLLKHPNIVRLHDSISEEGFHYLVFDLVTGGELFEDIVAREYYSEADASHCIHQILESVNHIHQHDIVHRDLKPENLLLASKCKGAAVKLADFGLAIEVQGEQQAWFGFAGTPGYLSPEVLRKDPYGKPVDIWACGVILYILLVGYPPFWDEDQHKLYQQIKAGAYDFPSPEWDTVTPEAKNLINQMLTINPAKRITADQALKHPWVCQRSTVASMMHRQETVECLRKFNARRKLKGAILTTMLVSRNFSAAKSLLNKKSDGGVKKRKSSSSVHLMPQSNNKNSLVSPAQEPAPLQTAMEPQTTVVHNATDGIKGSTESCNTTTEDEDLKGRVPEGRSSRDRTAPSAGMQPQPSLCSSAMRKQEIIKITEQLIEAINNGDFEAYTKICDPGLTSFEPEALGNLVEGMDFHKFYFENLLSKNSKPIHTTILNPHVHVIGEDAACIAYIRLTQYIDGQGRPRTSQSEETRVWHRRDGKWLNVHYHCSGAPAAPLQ
AKT3, sequence (Q9Y243 whole entry): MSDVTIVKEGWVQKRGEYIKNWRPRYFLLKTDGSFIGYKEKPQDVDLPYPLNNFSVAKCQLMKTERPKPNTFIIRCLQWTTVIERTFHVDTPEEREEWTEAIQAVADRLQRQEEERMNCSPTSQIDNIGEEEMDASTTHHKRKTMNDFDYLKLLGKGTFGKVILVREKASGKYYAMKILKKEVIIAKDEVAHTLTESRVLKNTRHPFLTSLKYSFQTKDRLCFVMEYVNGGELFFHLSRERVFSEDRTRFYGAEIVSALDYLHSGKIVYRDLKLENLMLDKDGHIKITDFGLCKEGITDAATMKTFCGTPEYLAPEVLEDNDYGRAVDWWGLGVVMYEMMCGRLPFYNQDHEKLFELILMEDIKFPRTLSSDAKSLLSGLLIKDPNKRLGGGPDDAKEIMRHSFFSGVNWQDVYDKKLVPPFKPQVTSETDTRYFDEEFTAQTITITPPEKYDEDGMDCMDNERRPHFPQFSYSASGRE
AAK1, sequence (Q2M2I8 whole entry): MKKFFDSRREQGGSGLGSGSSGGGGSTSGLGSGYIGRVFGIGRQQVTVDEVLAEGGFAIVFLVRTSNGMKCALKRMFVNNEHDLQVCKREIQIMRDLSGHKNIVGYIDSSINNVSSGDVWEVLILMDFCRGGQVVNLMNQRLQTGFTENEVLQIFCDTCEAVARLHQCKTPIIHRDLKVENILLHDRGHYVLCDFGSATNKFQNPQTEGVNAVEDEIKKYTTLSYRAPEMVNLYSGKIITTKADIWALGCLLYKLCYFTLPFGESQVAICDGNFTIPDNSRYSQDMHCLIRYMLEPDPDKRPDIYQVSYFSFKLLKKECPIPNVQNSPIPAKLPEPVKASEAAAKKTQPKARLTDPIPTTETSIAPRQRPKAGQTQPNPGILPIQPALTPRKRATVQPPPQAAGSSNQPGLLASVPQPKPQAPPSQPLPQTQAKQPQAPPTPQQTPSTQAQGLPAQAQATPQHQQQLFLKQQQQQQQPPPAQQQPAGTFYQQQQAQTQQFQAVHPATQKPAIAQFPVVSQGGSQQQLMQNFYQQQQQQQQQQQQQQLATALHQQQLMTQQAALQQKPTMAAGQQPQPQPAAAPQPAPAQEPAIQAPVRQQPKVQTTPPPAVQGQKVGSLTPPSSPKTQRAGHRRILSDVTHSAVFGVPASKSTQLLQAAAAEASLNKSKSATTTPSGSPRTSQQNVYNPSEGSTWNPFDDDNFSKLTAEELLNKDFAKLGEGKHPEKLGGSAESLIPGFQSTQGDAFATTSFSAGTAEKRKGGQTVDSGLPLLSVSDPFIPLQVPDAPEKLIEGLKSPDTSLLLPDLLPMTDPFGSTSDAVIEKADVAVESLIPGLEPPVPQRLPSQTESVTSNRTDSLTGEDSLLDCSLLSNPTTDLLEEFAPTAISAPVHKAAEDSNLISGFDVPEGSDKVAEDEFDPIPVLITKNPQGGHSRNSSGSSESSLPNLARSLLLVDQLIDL
T5 sequence (P41279 whole entry, species assumed): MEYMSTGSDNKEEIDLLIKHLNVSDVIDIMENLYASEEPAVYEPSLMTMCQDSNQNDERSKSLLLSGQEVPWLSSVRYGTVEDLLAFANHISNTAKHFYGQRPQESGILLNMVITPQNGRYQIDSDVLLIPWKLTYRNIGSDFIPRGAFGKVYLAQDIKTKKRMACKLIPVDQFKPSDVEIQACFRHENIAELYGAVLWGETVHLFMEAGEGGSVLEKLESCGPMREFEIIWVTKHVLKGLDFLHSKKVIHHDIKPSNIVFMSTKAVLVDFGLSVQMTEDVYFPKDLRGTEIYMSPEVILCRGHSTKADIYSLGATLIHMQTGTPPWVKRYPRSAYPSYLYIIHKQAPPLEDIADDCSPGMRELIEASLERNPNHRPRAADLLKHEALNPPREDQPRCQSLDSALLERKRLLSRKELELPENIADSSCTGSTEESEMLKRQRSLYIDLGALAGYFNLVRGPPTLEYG
T2 sequence (Q8N5S9 whole entry, species assumed): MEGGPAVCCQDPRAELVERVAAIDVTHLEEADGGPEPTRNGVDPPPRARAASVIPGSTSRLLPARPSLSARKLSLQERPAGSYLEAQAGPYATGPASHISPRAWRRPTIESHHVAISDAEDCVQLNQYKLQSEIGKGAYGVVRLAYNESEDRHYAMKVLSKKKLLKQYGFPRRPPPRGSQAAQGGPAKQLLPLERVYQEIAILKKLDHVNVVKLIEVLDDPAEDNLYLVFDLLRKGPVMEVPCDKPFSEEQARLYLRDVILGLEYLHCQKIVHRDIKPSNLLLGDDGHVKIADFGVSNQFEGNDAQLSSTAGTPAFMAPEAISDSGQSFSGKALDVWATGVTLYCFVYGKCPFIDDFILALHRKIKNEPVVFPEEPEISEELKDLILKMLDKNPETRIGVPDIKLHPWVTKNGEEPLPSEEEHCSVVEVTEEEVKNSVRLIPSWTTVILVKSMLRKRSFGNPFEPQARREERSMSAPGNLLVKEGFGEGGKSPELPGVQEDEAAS

For the compound `C=CC(=O)N1CCCC(c2c(F)cc(C(N)=O)c3[nH]c4c(c23)CCCCC4)C1` (single isomer, unassigned) [Compound 5-6], the inhibition at 1 µM is -20.3% on AAK1; -14.4% against AKT3; 15.7% at CAMK2G; 22.2% on CAMKK1; 6.3% on LATS2; 3.6% on MAP3K13. The inhibition at 1 µM against MAP3K8 is 7.4%; against MAP4K1/HPK1 it was -3.2%.
`C=CC(=O)N1CCC[C@@H](c2c(F)cc(C(N)=O)c3[nH]c4c(c23)CC2(CC4)CC2)C1` [Compound 6-2, (S)-5-(1-acryloylpiperidin-3-yl)-6-fluoro-1,2,4,9-tetrahydrospiro[carbazole-3,1′-cyclopropane]-8-carboxamide]: the inhibition at 1 µM at AAK1 is -15.7%; against AKT3, -16.3%; against CAMK2G, -7.1%; on CAMKK1, 5.7%; on LATS2, 1.5%; against MAP3K13 it was 16.1%. Also, the figures for the inhibition at 1 µM against MAP3K8 and at MAP4K1/HPK1 were 10.1% and 16.3%, respectively.
As for `C=CC(=O)N1CCC[C@@H](c2c(F)cc(C(N)=O)c3[nH]c4c(c23)CCC4)C1` [Compound 10-2, (S)-8-(1-acryloylpiperidin-3-yl)-7-fluoro-1,2,3,4-tetrahydrocyclo-penta[b]indole-5-carboxamide], the inhibition at 1 µM was -14.3% against AAK1; -19.4% on AKT3; -37.5% against CAMK2G; 3.7% at CAMKK1; -0.7% on LATS2; 3.2% against MAP3K13. Moreover, the inhibition at 1 µM on MAP3K8 came out at 4.5%; against MAP4K1/HPK1 it was 0.8%.

As usually defined, the inhibition is the change of the read-out against control, counted positive when it falls.

These data come from patent US20220009920A1 (GB005, Inc., priority 2020, published 2022).
